Reference: PubChem BioAssay AID328 (DTP/NCI, 2004)
Inconclusive results and toxic doses are left out. Residues, ends and D or L forms follow the SMILES beside them. *: point of attachment. Cbz = O=C(OCc1ccccc1)*; Bn = c1ccc(C*)cc1

Tested on: BDF1 mice, P388 leukemia ip, median survival T/C
Experiment: NCI In Vivo Anticancer Drug Screen. Data for tumor model P388 Leukemia (intraperitoneal) in B6D2F1 (BDF1) mice
Settings: endpoint: median survival time, higher = longer survival
Outline: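 Steps: implant the tumour, treat one group with compound and another with vehicle, record survival, then divide treated by control.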

[1] = dose: 50.0 mg/kg/injection, schedule: Q01DX009 (ip), vehicle: saline with Tween-80
[2] = dose: 100.0 mg/kg/injection, schedule: Q01DX009 (ip), vehicle: saline with Tween-80
[3] = dose: 200.0 mg/kg/injection, schedule: Q01DX009 (ip), vehicle: saline with Tween-80
[4] = dose: 100.0 mg/kg/injection, schedule: Q04DX003 (ip), vehicle: Klucel (hydroxypropylcellulose) (HPC)
[5] = dose: 200.0 mg/kg/injection, schedule: Q04DX003 (ip), vehicle: Klucel (hydroxypropylcellulose) (HPC)
[6] = dose: 400.0 mg/kg/injection, schedule: Q04DX003 (ip), vehicle: Klucel (hydroxypropylcellulose) (HPC)
[7] = dose: 12.5 mg/kg/injection, schedule: Q01DX009 (ip), vehicle: saline with Tween-80
[8] = dose: 25.0 mg/kg/injection, schedule: Q01DX009 (ip), vehicle: saline with Tween-80
[9] = dose: 100.0 mg/kg/injection, schedule: Q01DX009 (ip), vehicle: saline
[10] = dose: 100.0 mg/kg/injection, schedule: Q04DX003 (ip), vehicle: saline
[11] = dose: 200.0 mg/kg/injection, schedule: Q01DX009 (ip), vehicle: saline
[12] = dose: 200.0 mg/kg/injection, schedule: Q04DX003 (ip), vehicle: saline
[13] = dose: 400.0 mg/kg/injection, schedule: Q01DX009 (ip), vehicle: saline
[14] = dose: 400.0 mg/kg/injection, schedule: Q04DX003 (ip), vehicle: saline

O=C(O)/C=C/c1ccc(Cl)cc1Cl
T/C [1]: 95 % of control
T/C [2]: 90 % of control
T/C [3]: 90 % of control

C=CCCCCCCCCC(=O)N(CC#N)CC(C)C
T/C [1]: 100 % of control
T/C [2]: 109 % of control
T/C [3]: 109 % of control

COc1ccc(Cl)cc1NC(=O)c1ccccc1C(=O)O
T/C [4]: 91 % of control
T/C [5]: 87 % of control
T/C [6]: 87 % of control

c1cc2c(c(NC3=NCCCO3)c1)CCCC2
T/C [7]: 100 % of control
T/C [8]: 110 % of control
T/C [1]: 105 % of control

Nc1nc(=O)n(CC(=O)c2cccs2)cc1F
T/C [1]: 100 % of control
T/C [2]: 90 % of control
T/C (dose: 100.0 mg/kg/injection, schedule: Q04DX003 (ip), vehicle: saline with Tween-80): 95 % of control
T/C [3]: 86 % of control
T/C (dose: 200.0 mg/kg/injection, schedule: Q04DX003 (ip), vehicle: saline with Tween-80): 100 % of control

O=c1[nH]cc[nH]1
T/C [9]: 95 % of control
T/C [10]: 100 % of control
T/C [11]: 114 % of control
T/C [12]: 108 % of control
T/C (dose: 264.0 mg/kg/injection, schedule: Q01DX009 (ip), vehicle: saline): 122 % of control
T/C [13]: 122 % of control
T/C [14]: 104 % of control

CCCCOc1ccc(NC(N)=Nc2ccc(Cl)cc2)cc1
T/C (dose: 3.12 mg/kg/injection, schedule: Q01DX010 (ip), vehicle: carboxymethylcellulose (CMC)): 95 % of control
T/C (dose: 12.5 mg/kg/injection, schedule: Q01DX010 (ip), vehicle: carboxymethylcellulose (CMC)): 90 % of control
T/C (dose: 25.0 mg/kg/injection, schedule: Q01DX010 (ip), vehicle: carboxymethylcellulose (CMC)): 95 % of control
T/C (dose: 25.0 mg/kg/injection, schedule: Q04DX003 (ip), vehicle: saline with Tween-80): 109 % of control
T/C (dose: 50.0 mg/kg/injection, schedule: Q01DX010 (ip), vehicle: carboxymethylcellulose (CMC)): 95 % of control
T/C (dose: 50.0 mg/kg/injection, schedule: Q04DX003 (ip), vehicle: saline with Tween-80): 90 % of control

CC(C)CC(NC(=O)C1CCCN1C(=O)C(CSCc1ccccc1)NC(=O)C(CC(N)=O)NC(=O)C(CCC(N)=O)NC(=O)OCc1ccccc1)C(=O)NCC(N)=O (configuration not stated) (Cbz-QNC(Bn)PLG-NH2; configuration not given here)
T/C [4]: 105 % of control
T/C [5]: 102 % of control
T/C [6]: 98 % of control

Cc1cc(-c2ccc(Br)cc2)[n+](C)n1C
T/C [7]: 102 % of control
T/C [8]: 107 % of control
T/C [1]: 111 % of control

CCCCCCCCCCCC#N
T/C [9]: 95 % of control
T/C [11]: 95 % of control
T/C [13]: 100 % of control

CC(=O)OC(C)(C)/C=C/C(=O)[C@](C)(O)[C@H]1[C@H](O)C[C@@]2(C)[C@@H]3CC=C4[C@@H](C=C(O)C(=O)C4(C)C)[C@]3(C)C(=O)C[C@]12C
T/C (dose: 1.0 mg/kg/injection, schedule: Q01DX009 (ip), vehicle: saline): 100 % of control
T/C (dose: 2.0 mg/kg/injection, schedule: Q01DX009 (ip), vehicle: saline): 110 % of control

S=C1NCCS1
T/C (dose: 22.5 mg/kg/injection, schedule: Q01DX009 (ip), vehicle: saline with Tween-80): 97 % of control
T/C (dose: 45.0 mg/kg/injection, schedule: Q01DX009 (ip), vehicle: saline with Tween-80): 97 % of control
T/C (dose: 90.0 mg/kg/injection, schedule: Q01DX009 (ip), vehicle: saline with Tween-80): 92 % of control

CCCCOB(OCCCC)Oc1c(C(C)(C)C)cccc1C(C)(C)C
T/C [10]: 100 % of control
T/C [12]: 112 % of control
T/C [14]: 108 % of control

CC(=O)NCCC(C)C
T/C [10]: 104 % of control
T/C [12]: 113 % of control
T/C [14]: 109 % of control

CN=C1N[N+]2=CCCCC2S1 (configuration not stated)
T/C (dose: 60.0 mg/kg/injection, schedule: Q01DX009 (ip), vehicle: saline): 163 % of control
T/C (dose: 120.0 mg/kg/injection, schedule: Q01DX009 (ip), vehicle: saline): 95 % of control
